Data set [1] deals with T1, GluN2D-containing receptors (Rattus norvegicus, UniProt P35439+Q62645).
T1 construct: expressed in transfected cells; host or cells: Xenopus laevis oocytes
Description: Two-electrode voltage-clamp inhibition of GluN2D-containing NMDA receptors in Xenopus laevis oocytes. As to conditions: GluN2D-containing receptors. The data set is classed as cell-based. The procedure:
(§1) IC50 values were obtained by fitting the Hill equation to the average composite concentration-effect curves.
(§2) Xenopus laevis oocytes were isolated and maintained as described in Hansen & Traynelis, J Neurosci 2011, 31, 3650-3661. Oocytes were placed in a perfusion chamber with recording solution comprised of (in mM) 90 NaCl, 1 KCl, 0.5 BaCl2, 0.005 EDTA and 10 HEPES, pH adjusted to 7.4 with NaOH at 23° C. The glass electrodes used had tip resistance of 0.5-2.0 MΩ and were filled with 0.3-3.0 M KCl. Compounds were made as 20 mM stock solutions in DMSO and diluted to final concentrations in recording solution (final DMSO was 0.1-0.05% vol/vol). The current recordings were performed using a Warner OC-725B or C amplifier at a holding potential of −40 mV.
On the technique in general: In two-electrode clamp one electrode senses voltage and the other passes current.

Data set [2] addresses T2, GluN2C-containing receptors (Rattus norvegicus, UniProt P35439+Q00961).
T2 construct: expressed in transfected cells; host or cells: Xenopus laevis oocytes
Description: Two-electrode voltage-clamp inhibition of GluN2C-containing NMDA receptors in Xenopus laevis oocytes. In kind it is cell-based. As to the method: as §1, §2

The test system of data set [3] is GluN2C- and GluN2D-containing NMDA receptors. The data set can be described thus: NMDA receptor inhibition and subunit selectivity, GluN2C/GluN2D not told apart. In kind it is cell-based. The procedure:
as §1, §2

In data set [4] the target is T3, GluN2D-containing receptors (Rattus norvegicus, UniProt Q62645).
T3 construct: expressed in transfected cells; host or cells: Xenopus laevis oocytes
Description: Two-electrode voltage-clamp inhibition of GluN2D-containing NMDA receptors in Xenopus laevis oocytes. The data set is classed as cell-based. As to the method: as §1, §2

Data set [5] has as its system MDR1-MDCK cell monolayers. The data set can be described thus: MDR1-MDCK permeability assay. The data set is classed as in vitro ADME. The procedure: The Papp and efflux ratio were calculated as described in the Methods. […] See Wang et al., International Journal of Pharmaceutics, 2005, 288, 349-359.
Cell monolayers were grown to confluence on collagen-coated, microporous, polycarbonate membranes in 12-well Costar Transwell® plates. The permeability assay buffer was Hanks Balanced Salt Solution containing 10 mM HEPES and 15 mM glucose at pH 7.4. The buffer in the receiver chamber also contained 1% bovine serum albumin. The dosing solution concentration in the assay buffer was 5 μM for each compound tested. The cell monolayers were dosed on the apical side (A-to-B) or basolateral side (B-to-A) and incubated at 37° C. with 5% CO2 in a humidified incubator. Samples were taken from the donor and receiver chambers at 120 minutes. Each determination was performed in duplicate. The co-dosed lucifer yellow flux was also measured for each monolayer to ensure no damage was inflicted to the cell monolayers during the flux period. All samples were assayed by LC-MS/MS using electrospray ionization. The apparent permeability (Papp) and percent recovery were calculated as follows. […] Human Liver Microsomal Stability

Read-outs that look alike come from different tables or passages of the source.

T3 sequence (Q62645 28-1323, other chains not shown): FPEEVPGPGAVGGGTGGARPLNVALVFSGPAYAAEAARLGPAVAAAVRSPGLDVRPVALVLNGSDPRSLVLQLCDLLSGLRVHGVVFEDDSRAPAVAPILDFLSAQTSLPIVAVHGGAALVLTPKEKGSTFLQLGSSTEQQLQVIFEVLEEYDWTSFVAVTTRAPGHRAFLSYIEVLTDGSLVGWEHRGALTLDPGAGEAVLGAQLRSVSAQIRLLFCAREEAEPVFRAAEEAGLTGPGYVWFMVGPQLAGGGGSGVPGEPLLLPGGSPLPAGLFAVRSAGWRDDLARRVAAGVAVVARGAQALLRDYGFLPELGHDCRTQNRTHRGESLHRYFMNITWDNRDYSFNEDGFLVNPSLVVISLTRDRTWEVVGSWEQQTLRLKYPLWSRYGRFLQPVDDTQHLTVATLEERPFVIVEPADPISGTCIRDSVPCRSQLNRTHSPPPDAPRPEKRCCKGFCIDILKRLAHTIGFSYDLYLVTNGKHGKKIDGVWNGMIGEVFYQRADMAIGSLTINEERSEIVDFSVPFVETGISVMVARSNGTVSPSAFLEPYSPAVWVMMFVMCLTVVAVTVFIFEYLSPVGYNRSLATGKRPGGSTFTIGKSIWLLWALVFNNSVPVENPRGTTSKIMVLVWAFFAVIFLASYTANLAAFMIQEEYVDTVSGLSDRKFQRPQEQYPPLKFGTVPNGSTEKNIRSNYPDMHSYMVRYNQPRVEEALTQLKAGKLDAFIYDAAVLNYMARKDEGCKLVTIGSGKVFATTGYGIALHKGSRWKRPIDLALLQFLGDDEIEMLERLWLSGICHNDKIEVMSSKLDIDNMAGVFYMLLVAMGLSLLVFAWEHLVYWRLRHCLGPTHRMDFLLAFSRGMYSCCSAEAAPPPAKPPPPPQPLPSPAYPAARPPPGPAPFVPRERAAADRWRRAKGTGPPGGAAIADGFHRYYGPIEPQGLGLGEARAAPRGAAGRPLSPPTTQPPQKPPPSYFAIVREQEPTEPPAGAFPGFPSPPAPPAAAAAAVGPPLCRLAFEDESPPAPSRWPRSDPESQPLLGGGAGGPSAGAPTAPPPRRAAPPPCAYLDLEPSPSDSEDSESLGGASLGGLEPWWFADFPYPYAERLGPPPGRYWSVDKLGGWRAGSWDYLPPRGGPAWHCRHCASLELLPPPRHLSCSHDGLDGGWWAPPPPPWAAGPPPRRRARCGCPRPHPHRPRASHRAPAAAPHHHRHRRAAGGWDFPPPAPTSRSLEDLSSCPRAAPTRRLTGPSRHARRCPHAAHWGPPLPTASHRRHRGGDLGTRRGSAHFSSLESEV
T1 sequence (Q62645 28-1323, other chains not shown): as above
T2 sequence (Q00961 20-1237, other chains not shown): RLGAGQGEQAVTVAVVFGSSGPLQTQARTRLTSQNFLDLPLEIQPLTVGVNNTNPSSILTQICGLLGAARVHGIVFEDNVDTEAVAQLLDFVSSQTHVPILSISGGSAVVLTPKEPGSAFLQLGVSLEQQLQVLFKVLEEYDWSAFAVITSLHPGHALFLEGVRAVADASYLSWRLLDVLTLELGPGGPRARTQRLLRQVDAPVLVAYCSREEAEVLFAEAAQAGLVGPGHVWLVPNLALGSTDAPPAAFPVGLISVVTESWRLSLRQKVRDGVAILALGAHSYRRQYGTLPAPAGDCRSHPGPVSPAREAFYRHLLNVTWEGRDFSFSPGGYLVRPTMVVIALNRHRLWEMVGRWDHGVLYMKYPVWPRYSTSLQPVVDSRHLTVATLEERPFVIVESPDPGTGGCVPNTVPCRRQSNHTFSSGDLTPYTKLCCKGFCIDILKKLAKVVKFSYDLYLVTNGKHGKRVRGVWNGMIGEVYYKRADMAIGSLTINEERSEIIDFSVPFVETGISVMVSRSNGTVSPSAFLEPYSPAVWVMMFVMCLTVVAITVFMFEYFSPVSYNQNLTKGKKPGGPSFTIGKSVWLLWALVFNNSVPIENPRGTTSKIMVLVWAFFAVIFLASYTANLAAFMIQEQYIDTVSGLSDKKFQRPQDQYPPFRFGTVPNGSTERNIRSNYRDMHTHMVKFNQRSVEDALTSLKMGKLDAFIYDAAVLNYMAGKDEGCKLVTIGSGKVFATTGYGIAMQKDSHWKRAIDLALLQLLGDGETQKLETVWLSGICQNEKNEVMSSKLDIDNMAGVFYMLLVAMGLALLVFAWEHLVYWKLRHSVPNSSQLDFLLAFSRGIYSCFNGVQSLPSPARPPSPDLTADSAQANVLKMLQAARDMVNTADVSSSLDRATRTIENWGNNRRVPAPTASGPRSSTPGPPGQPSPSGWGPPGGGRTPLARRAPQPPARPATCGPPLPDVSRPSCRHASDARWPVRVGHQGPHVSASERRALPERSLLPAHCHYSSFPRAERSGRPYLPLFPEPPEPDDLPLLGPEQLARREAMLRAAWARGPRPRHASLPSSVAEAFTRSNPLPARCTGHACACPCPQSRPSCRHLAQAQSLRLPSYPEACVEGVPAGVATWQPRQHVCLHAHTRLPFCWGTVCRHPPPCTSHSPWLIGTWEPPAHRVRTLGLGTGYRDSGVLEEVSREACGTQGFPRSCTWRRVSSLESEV

Regarding `O=C(CC(F)(F)CO)N1N=C(c2c(-c3ccc(Cl)cc3)c3ccccc3[nH]c2=O)CC1c1ccc(Cl)cc1` (stereo not shown) [4-(4-chlorophenyl)-3-(5-(4-chlorophenyl)-1-(3,3-difluoro-4-hydroxybutanoyl)-4,5-dihydro-1H-pyrazol-3-yl)quinolin-2(1H)-one], the IC50 – broadly, the midpoint of a concentration-inhibition curve – was 0.8 µM in data set [1] and 1.6 µM in data set [2].

As for `O=C(O)CCC(=O)N1N=C(c2c(-c3ccncc3)c3ccccc3[nH]c2=O)CC1c1ccc(Cl)cc1` (stereo not shown) [4-(5-(4-chlorophenyl)-3-(2-oxo-4-(pyridin-4-yl)-1,2-dihydroquinolin-3-yl)-4,5-dihydro-1H-pyrazol-1-yl)-4-oxobutanoic acid], the IC50 is 8.1 µM in data set [1] and 15 µM in data set [2].

As to `O=C(CC(F)(F)C(=O)O)N1N=C(c2c(-c3cccc(F)c3)c3ccccc3[nH]c2=O)CC1c1ccc(Cl)cc1` (stereo not shown) [4-(5-(4-chlorophenyl)-3-(4-(3-fluorophenyl)-2-oxo-1,2-dihydroquinolin-3-yl)-4,5-dihydro-1H-pyrazol-1-yl)-2,2-difluoro-4-oxobutanoic acid], the IC50 in data set [1] stood at 0.5 µM; in data set [2], 0.6 µM.

For `O=C(O)CC(F)(F)C(=O)N1N=C(c2c(-c3ccc(Cl)cc3)c3ccccc3[nH]c2=O)CC1c1ccc(Cl)cc1` (stereo not shown) [4-(5-(4-chlorophenyl)-3-(4-(4-chlorophenyl)-2-oxo-1,2-dihydroquinolin-3-yl)-4,5-dihydro-1H-pyrazol-1-yl)-3,3-difluoro-4-oxobutanoic acid], the IC50 in data set [1] was 0.05 µM; in data set [2] it was 0.39 µM.

Regarding `O=C(CC(F)(F)CO)N1N=C(c2c(-c3ccc(Cl)cc3)c3ccccc3[nH]c2=O)C[C@@H]1c1ccc(Cl)cc1` [(R)-4-(4-chlorophenyl)-3-(5-(4-chlorophenyl)-1-(3,3-difluoro-4-hydroxybutanoyl)-4,5-dihydro-1H-pyrazol-3-yl)quinolin-2(1H)-one], the IC50 in data set [1] came to 3.6 µM; in data set [2], 8.5 µM.

Take `O=C(CC(F)(F)CO)N1N=C(c2c(-c3ccc(Cl)cc3)c3ccccc3[nH]c2=O)C[C@H]1c1ccc(Cl)cc1` [(S)-4-(4-chlorophenyl)-3-(5-(4-chlorophenyl)-1-(3,3-difluoro-4-hydroxybutanoyl)-4,5-dihydro-1H-pyrazol-3-yl)quinolin-2(1H)-one]: the IC50 was found to be 0.6 µM in data set [1] and 1.4 µM in data set [2].

Take `O=C(O)CCC(=O)N1N=C(c2c(-c3ccccc3)c3cc(Cl)ccc3[nH]c2=O)CC1c1ccc(C(=O)O)cc1` (stereo not shown) [Compound 997-5, 4-(1-(3-Carboxypropanoyl)-3-(6-chloro-2-oxo-4-phenyl-1,2-dihydroquinolin-3-yl)-4,5-dihydro-1H-pyrazol-5-yl)benzoic acid]: the “activity at NMDA receptors, in words” value in data set [3] is “no activity”.

For the compound `COC(=O)c1ccc(C2CC(c3c(-c4ccccc4)c4cc(Cl)ccc4[nH]c3=O)=NN2C(=O)CCC(=O)O)cc1` (stereo not shown) [Compound 997-6, 4-(3-(6-Chloro-2-oxo-4-phenyl-1,2-dihydroquinolin-3-yl)-5-(4-(methoxycarbonyl)phenyl)-4,5-dihydro-1H-pyrazol-1-yl)-4-oxobutanoic acid], in data set [4] (subunit inferred, GluN2D by context of b229, read-out: IC50 (potency, FIG. 10)), the IC50 was 32 µM.

With `O=C(O)CCC(=O)N1N=C(c2c(-c3ccccc3)c3cc(Cl)ccc3[nH]c2=O)CC1c1ccc(C(F)(F)F)cc1` (stereo not shown) [Compound 997-8, 4-(3-(6-Chloro-2-oxo-4-phenyl-1,2-dihydroquinolin-3-yl)-5-(4-(trifluoromethyl)phenyl)-4,5-dihydro-1H-pyrazol-1-yl)-4-oxobutanoic acid], the IC50 in data set [4] (GluN2D-containing receptors, read-out: inhibition IC50 for GluN2D) came out at 4.1 µM.

With `COC(=O)CCC(=O)N1N=C(c2c(-c3ccccc3)c3cc(Cl)ccc3[nH]c2=O)CC1c1ccc(Br)cc1` (stereo not shown) [Compound 997-11, Methyl 4-(5-(4-bromophenyl)-3-(6-chloro-2-oxo-4-phenyl-1,2-dihydroquinolin-3-yl)-4,5-dihydro-1H-pyrazol-1-yl)-4-oxobutanoate], in data set [3], the “activity at NMDA receptors, in words” value is “inactive”.

Consider `COC(=O)/C=C/C(=O)N1N=C(c2c(-c3ccc(Br)cc3)c3ccccc3[nH]c2=O)CC1c1ccc(Cl)cc1` (stereo not shown) [Compound 997-31, (E)-Methyl 4-(3-(4-(4-bromophenyl)-2-oxo-1,2-dihydroquinolin-3-yl)-5-(4-chlorophenyl)-4,5-dihydro-1H-pyrazol-1-yl)-4-oxobut-2-enoate], for which the “activity at NMDA receptors, in words” value in data set [3] is “inactive”.

For `O=C(O)CCC(=O)N1N=C(c2c(-c3ccc(F)c(Cl)c3)c3ccccc3[nH]c2=O)CC1c1ccc(Cl)cc1` (stereo not shown) [Compound 997-34, 4-(3-(4-(3-Chloro-4-fluorophenyl)-2-oxo-1,2-dihydroquinolin-3-yl)-5-(4-chlorophenyl)-4,5-dihydro-1H-pyrazol-1-yl)-4-oxobutanoic acid], the “potency at GluN2D-containing receptors, in words” value (shortened to “potency”) in data set [4] is on record as “submicromolar”.

As for `O=C(O)CCC(=O)N1N=C(c2c(-c3cc(F)cc(F)c3)c3ccccc3[nH]c2=O)CC1c1ccc(Cl)cc1` (stereo not shown) [Compound 997-35, 4-(5-(4-Chlorophenyl)-3-(4-(3,5-difluorophenyl)-2-oxo-1,2-dihydroquinolin-3-yl)-4,5-dihydro-1H-pyrazol-1-yl)-4-oxobutanoic acid], the “potency” value in data set [4] is reported as “submicromolar”.

With `O=C(O)CCC(=O)N1N=C(c2c(-c3cc(Cl)cc(Cl)c3)c3ccccc3[nH]c2=O)CC1c1ccc(Cl)cc1` (stereo not shown) [Compound 997-37], in data set [4], the “potency” value is reported as “submicromolar”.

As for `O=C(O)CCC(=O)N1N=C(c2c(-c3ccc(Cl)c(Cl)c3)c3ccccc3[nH]c2=O)CC1c1ccc(Cl)cc1` (stereo not shown) [Compound 997-41, 4-(5-(4-Chlorophenyl)-3-(4-(3,4-dichlorophenyl)-2-oxo-1,2-dihydroquinolin-3-yl)-4,5-dihydro-1H-pyrazol-1-yl)-4-oxobutanoic acid], the “potency” value in data set [4] was “submicromolar”.

As to `O=C(O)CCC(=O)N1N=C(c2c(-c3ccc(F)c(F)c3)c3ccccc3[nH]c2=O)CC1c1ccc(Cl)cc1` (stereo not shown) [Compound 997-42, 4-(5-(4-Chlorophenyl)-3-(4-(3,4-difluorophenyl)-2-oxo-1,2-dihydroquinolin-3-yl)-4,5-dihydro-1H-pyrazol-1-yl)-4-oxobutanoic acid], the “potency” value in data set [4] is recorded as “submicromolar”.

Consider `O=C(CCCF)N1N=C(c2c(-c3ccc(Cl)cc3)c3ccccc3[nH]c2=O)CC1c1ccc(Cl)cc1` (stereo not shown) [Compound 997-64, 4-(4-Chlorophenyl)-3-(5-(4-chlorophenyl)-1-(4-fluorobutanoyl)-4,5-dihydro-1H-pyrazol-3-yl)quinolin-2(1H)-one], for which, in data set [5] (MDR1-MDCK, 5 μM, 120 minutes), the “Papp A-B” value is 38.8 nm/s and the “Papp B-A” value is 95.2 nm/s. In data set [5] (from Papp and efflux ratio in MDR1-MDCK), the BBB penetration classification result is on record as “highly brain penetrable”.

The values above are taken from patent US12312328B2, “Pyrazoline dihydroquinolones, pharmaceutical compositions, and uses” (Emory University, priority 2013, dated 2025).
